Laboratory results: US20250011307A1, “CRYSTALLINE FORMS OF BIARYL YAP/TAZ-TEAD PROTEIN-PROTEIN INTERACTION INHIBITORS” (Novartis AG, priority 2021, published 2025)

Key:
Assay type in all cases: physicochemical
[1] = Solid state bulk stability stress test (HPLC degradation products, color, XRPD); parameters: key to CL color: A: No change; B: Slight discoloration; C: Medium discoloration; D: Strong discoloration; conditions: Compound A forms
[2] = Xenon light stress test of bulk (HPLC degradation products, color, XRPD); parameters: key to CL color: A: No change; B: Slight discoloration; C: Medium discoloration; D: Strong discoloration; conditions: Compound A forms, Xenon light (1200 kLuxh, 25° C.)
Experimental: (§1) X-ray powder diffraction (XRPD) patterns were obtained using a Bruker Advance D8 in reflection geometry. Powders were analyzed using a zero background Si flat sample holder. The radiation used was Cu Kα (A=1.5418 Å). Patterns were measured between 2° and 40° 2theta. • Sample amount: 5-10 mg • Sample holder: zero background Si flat sample holder
as §1, with “radiation” for “radiation used”, “(λ=1.5418” for “(A=1.5418”

[3] = Excipient compatibility stress test (HPLC degradation products, color); parameters: key to CL color: A: No change; B: Slight discoloration; C: Medium discoloration; D: Strong discoloration; conditions: Compound A forms
[4] = Solubility after equilibration at 25° C. for 24 h, with final pH and XRPD of solid residues; conditions: Compound A forms
[5] = Hygroscopicity (loss on drying by TGA and XRPD, as is and after storage at 92% / 80% RH); conditions: Compound A forms; for Loss on drying by TGA [%]: TGA temperature per cell: Modification A 110° C., amorphous 119° C., 4-hydroxybenzoate 200° C.
[6] = 2 weeks 50° C./75% RH, 1% in mixture 1
[7] = 2 weeks 50° C./75% RH, 1% in mixture 2
[8] = 2 weeks 50° C./75% RH, 1% in mixture 3
[9] = 2 weeks 50° C./75% RH, HGC capsule powder
[10] = 2 weeks 50° C./75% RH, HPMC capsule powder
[11] = 2 weeks 70° C./11% RH, 1% in mixture 1
[12] = 2 weeks 70° C./11% RH, 1% in mixture 2
[13] = 2 weeks 70° C./11% RH, 1% in mixture 3
[14] = 2 weeks 70° C./11% RH, HGC capsule powder
[15] = 2 weeks 70° C./11% RH, HPMC capsule powder
[16] = 2 weeks 70° C./75% RH, 1% in mixture 1
[17] = 2 weeks 70° C./75% RH, 1% in mixture 2
[18] = 2 weeks 70° C./75% RH, 1% in mixture 3
[19] = 2 weeks 70° C./75% RH, HPC capsule powder
[20] = 2 weeks 70° C./75% RH, HPMC capsule powder

## CNC(=O)c1cnc(OCCO)c(F)c1-c1c(Cl)c(F)cc2c1C[C@](c1ccccc1)([C@@H]1CCCN1)O2 [Compound A 4-hydroxybenzoate, 4-((2S,4S)-5-Chloro-6-fluoro-2-phenyl-2-((S)-pyrrolidin-2-yl)-2,3-dihydrobenzofuran-4-yl)-5-fluoro-6-(2-hydroxyethoxy)-N-methylnicotinamide]
[1]; 2 weeks 50° C./75% RH
  Bulk (XRPD): No change
  CL color: A
  DP[%] degradation products, Bulk (HPLC): 0.2%
[1]; 2 weeks 80° C., 11% RH
  Bulk (XRPD): No change
  CL color: A
  DP[%] degradation products, Bulk (HPLC): 0.2%
[1]; 2 weeks 80° C./75% RH
  Bulk (XRPD): No change
  CL color: A
  DP[%] degradation products, Bulk (HPLC): 1.5%
[2]; amber vial
  Bulk amber vial (XRPD): No change
  CL color: A
  DP[%] degradation products, Bulk amber vial (HPLC): 0.2%
[2]; clear vial
  Bulk clear vial (XPRD): No change
  CL color: A
  DP[%] degradation products, Bulk clear vial (HPLC): 0.2%
[3]; [6]
  CL color: A
  DP[%] degradation products: 0.3%
[3]; [7]
  CL color: A
  DP[%] degradation products: 0.2%
[3]; [8]
  CL color: A
  DP[%] degradation products: 0.2%
[3]; [9]
  CL color: A
  DP[%] degradation products: 0.3%
[3]; [10]
  CL color: A
  DP[%] degradation products: 0.6%
[3]; [11]
  CL color: A
  DP[%] degradation products: 0.4%
[3]; [12]
  CL color: A
  DP[%] degradation products: 0.1%
[3]; [13]
  CL color: A
  DP[%] degradation products: 0.2%
[3]; [14]
  CL color: A
  DP[%] degradation products: 0.3%
[3]; [15]
  CL color: A
  DP[%] degradation products: 0.6%
[3]; [16]
  CL color: A
  DP[%] degradation products: 3.6%
[3]; [17]
  CL color: A
  DP[%] degradation products: 2.3%
[3]; [18]
  CL color: A
  DP[%] degradation products: 1.5%
[3]; [19]
  CL color: A
  DP[%] degradation products: 1.3%
[3]; [20]
  CL color: A
  DP[%] degradation products: 3.1%
[4]; FaSSIF V2 pH 6.5
  final pH: (6.55)
[4]; FaSSIF V2 pH 6.5, target concentration 20 mg/10 mL
  Sol. (solubility): >2, mg/mL
[4]; FeSSIF V2 pH 5.8
  final pH: (5.86)
[4]; FeSSIF V2 pH 5.8, target concentration 20 mg/10 mL
  Sol. (solubility): >2, mg/mL
[4]; SGF pH 2.0
  final pH: (2.36)
[4]; SGF pH 2.0, target concentration 20 mg/10 mL
  Sol. (solubility): >2, mg/mL
[4]; Water
  final pH: (7.66)
[4]; Water, target concentration 20 mg/10 mL
  Sol. (solubility): >2, mg/mL
[4]; pH 1.2, 100 mM HCl
  final pH: (1.18)
[4]; pH 1.2, 100 mM HCl, target concentration 20 mg/10 mL
  Sol. (solubility): >2, mg/mL
[4]; pH 3.0, 50 mM citrate buffer
  final pH: (3.12)
[4]; pH 3.0, 50 mM citrate buffer, target concentration 20 mg/10 mL
  Sol. (solubility): >2, mg/mL
[4]; pH 4.7, 50 mM acetate buffer
  final pH: (4.78)
[4]; pH 4.7, 50 mM acetate buffer, target concentration 20 mg/10 mL
  Sol. (solubility): >2, mg/mL
[4]; pH 6.8, 50 mM phosphate buffer
  final pH: (6.75)
[4]; pH 6.8, 50 mM phosphate buffer with 50 mM Na taurocholate
  final pH: (6.72)
[4]; pH 6.8, 50 mM phosphate buffer with 50 mM Na taurocholate, target concentration 20 mg/10 mL
  Sol. (solubility): >2, mg/mL
[4]; pH 6.8, 50 mM phosphate buffer, target concentration 20 mg/10 mL
  Sol. (solubility): >2, mg/mL
[5]; After 1 day at 80% RH
  XRPD: No change
  Loss on drying by TGA [%]: 0.6% (200° C.)
[5]; After 1 day at 92% RH
  XRPD: No change
  Loss on drying by TGA [%]: 0.7% (200° C.)
[5]; Hygroscopicity, before RH storage
  Loss on drying by TGA [%]: 0.5% (200° C.)
